US6432403B1, “Antibodies to polypeptides having prenylcysteine carboxyl methlytransferase activity or inhibiting activity” (New York University, priority 1997, dated 2002)

Target: T1, human pcCMT (Homo sapiens, UniProt O60725)
T1 construct: The 3.6-kb full-length HL60 pcCMT cDNA and an 852-bp cDNA fragment comprising the ORF were subcloned into the eukaryotic expression vectors; expressed in transfected cells; host or cells: COS-1 cells (pCDM8 vector, DEAE-dextran transfection); light membranes after nitrogen cavitation
Experiment: Carboxyl methylation of prenylcysteine analogs (AFC, AGGC) as defined substrates by the recombinant enzyme in COS-1 membranes
Format: biochemical
Procedure: Prenylcysteine Carboxyl Methyltransferase Assays: COS-1 cells transfected with HL60 pcCMT or vector alone were harvested at 48 hours with 5 mM EDTA and subjected, in parallel with human neutrophils, to nitrogen cavitation and discontinuous sucrose density centrifugation as described (Philips et al, 1991). Light membranes were assayed for pcCMT activity qualitatively by S-adenosyl-L- [methyl-^3H]methionine labeling (SDS-polyacrylamide gel electrophoresis and flurography) of Rho GTPases partially purified from neutrophil cytosol and quantitatively by carboxyl methylation of N-acetyl-S-trans,trans-farnesyl-L-cysteine (AFC) (heptane partition, alkaline hydrolysis, and measurement of vapor phase [^3H]methanol) as described (Philips et al, 1995)
To determine whether the HL60 STE14 protein homolog has prenylcysteine carboxyl methyltransferase activity, the cDNA was subcloned into a mammalian expression vector PCDM8 (Invitrogen, San Diego, Calif.) and transiently overexpressed ectopically in COS-1 cells. Membranes prepared from these cells were used as a source of recombinant enzyme. Farnesylated Ras GTPases require detergent for extraction from membranes. Therefore, geranylgeranylated neutrophil cytosolic Rho accessory protein, guanine nucleotide dissociation inhibitor (GDI), were utilized as endogenous substrates in an in vitro assay (FIGS. 5A and 5B). Untransfected COS-1 cell membranes had little pcCMT activity toward Rho proteins compared with that of membranes derived from human neutrophils (FIG. 5A). Transfection with the HL60 cDNA conferred pcCMT activity toward Rho GTPases on COS-1 membranes, and this activity was blocked by the competitive pcCMT inhibitor, AFC, with an ED50 (10 μM) identical to that for endogenous neutrophil pcCMT. Carboxyl methylation of Rac2 and RhoA by HL60 pcCMT-transfected COS-1 cell membranes was enhanced by guanosine 5′-3-O-(thio)triphosphate (GTPγS) (FIG. 5B), similar to the activity observed in neutrophil membranes (Philips et al, 1993). Carboxyl methyltransferase activity was quantitated in membranes of COS-1 cells transfected with HL60 pcCMT using prenylcysteine analogs as defined substrates (Philips et al, 1995). Untransfected COS-1 cell membranes had […] (n=5) of the pcCMT specific activity of neutrophil membranes toward AFC.
The Michaelis constants of the recombinant enzyme, Km=7 μM for AFC and 0.6 μM for AGGC, were similar to those for the endogenous neutrophil enzyme (Pillinger et al, 1994). Thus, the cDNA described above encodes authentic human myeloid pcCMT.

T1 sequence (O60725 whole entry, the tested form may be a part): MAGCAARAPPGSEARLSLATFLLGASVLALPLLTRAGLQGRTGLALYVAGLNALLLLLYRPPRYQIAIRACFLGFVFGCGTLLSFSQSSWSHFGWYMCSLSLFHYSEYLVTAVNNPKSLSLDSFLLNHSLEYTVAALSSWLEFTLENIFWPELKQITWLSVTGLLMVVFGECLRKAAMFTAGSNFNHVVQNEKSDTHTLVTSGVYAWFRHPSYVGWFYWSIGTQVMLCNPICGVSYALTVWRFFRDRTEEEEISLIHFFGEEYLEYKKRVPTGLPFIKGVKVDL

Increase in carboxyl methylation of the substrate on pcCMT transfection (n=2): 20 fold | Km (recombinant enzyme, read-out: Michaelis constant Km): 7 µM
Structure (SMILES): CC(=O)N[C@@H](CSC/C=C(\C)CC/C=C(\C)CCC=C(C)C)C(=O)O [AFC, N-acetyl-S-trans,trans-farnesyl-L-cysteine]
